We go through 5 compounds from patent US20210087184A1, “AMINO-BENZOISOTHIAZOLE AND AMINO-BENZOISOTHIADIAZOLE AMIDE COMPOUNDS” (Aerie Pharmaceuticals, Inc., priority 2018, published 2021).

Counter-ions that a name gives are not always drawn.

The nature of this test: Topical pharmaceutical composition administered to the eyes (Examples 246-253). The class given is in vivo. To be noted: for intraocular pressure / neuroprotective agent: 0.50 wt % topical eye drop composition of Example 246. How it is done: Topical pharmaceutical compositions for lowering intraocular pressure are prepared by conventional methods and formulated as follows: […]
A compound according to this disclosure is used as the 6-aminobenzoisothiazole derivative. […]

The mark [1] stands for this setting: 0.50 wt % topical eye drop composition of Example 246, twice per day.

As for `O=C(NCc1ccccn1)c1ccc([C@H]2C[C@@H]2C(=O)Nc2ccc3cnsc3c2)cc1` [Example E150, 4-((1S,2S)-2-(benzoisothiazol-6-ylcarbamoyl)cyclopropyl)-N-(pyridin-2-ylmethyl)benzamide], the intraocular pressure result is listed as “substantially decreases”. In addition, under setting [1], the allergic symptoms entry is “substantially decreases” and the dry eye syndrome result was “relieves”. Take `CN(C)CC(C(=O)Nc1ccc2cnsc2c1)c1ccsc1` (stereo not drawn) [Example E44, 3-(dimethylamino)-N-(benzoisothiazol-6-yl)-2-(thiophen-3-yl)propanamide dihydrochloride]: the “hyperemia, redness and ocular irritation” value (0.50 wt % topical eye drop composition of Example 246, as needed) is reported as “substantially decreases”. For `NCC(C(=O)Nc1ccc2cnsc2c1)c1ccsc1` (stereo not drawn) [Example E49, 3-amino-N-(benzoisothiazol-6-yl)-2-(thiophen-3-yl)propanamide dihydrochloride], the intraocular pressure result was “substantially decreases”. As for `Cl.Cl.NCC(C(=O)Nc1ccc2cnsc2c1F)c1ccsc1` (stereo not drawn) [3-amino-N-(7-fluoro-benzoisothiazol-6-yl)-2-(thiophen-3-yl)propanamide dihydrochloride], the intraocular pressure result was “substantially decreases” and the neuroprotective agent result is “serves as a neuroprotective agent”.

Regarding `NC(CC(=O)Nc1ccc2cnsc2c1)c1ccsc1` (stereo not drawn) [Example E6, 3-amino-N-(benzoisothiazol-6-yl)-3-(thiophen-3-yl)propanamide dihydrochloride], the intraocular pressure result is listed as “substantially decreases” and the neuroprotective agent result is recorded as “serves as a neuroprotective agent”.
